Source: patent US20090105261A1, “Novel substituted pyrazolo[1,5<I>A</I>]-1,3,5-Triazine derivatives and their analogues, pharmaceutical compositions containing same, use thereof as medicine and methods for preparing same” (GREENPHARMA, priority 2002, published 2009)
One block for each compound: values may come before it.

Legend:
[1] = target: T1, human phosphodiesterase type 2 (source: U-937 cells) (Homo sapiens, UniProt O00408); experiment: PDE2 inhibition, [3H]cAMP hydrolysis, scintillation; format: biochemical; conditions: substrate [3H]cAMP+cAMP 1 μM, 30 minutes at 30° C.
T1 construct: human phosphodiesterase type 2 (source: U-937 cells); endogenous in cells; host or cells: U-937 cells
Description: This novel family of compounds was tested as an inhibitor of human phosphodiesterase type 2 (source: U-937 cells) by following the method described by Torphy, T. J., Zhou, H. L. and Cieslinski, L. B. (J. Pharmacol. Exp. Ther., 1992, 263, 1195-1205). […] A quantitative measurement of the hydrolysis product [3H]-5′-AMP was determined by scintillation.

TNFα = TNFα in supernatants of LPS-activated venous blood mononuclear cells (PBMCs), EIA; format: cell-based; conditions: PBMC, LPS 1 μg/ml, 24 hours incubation
Description: The compounds according to the invention were evaluated for their anti-inflammatory properties on venous blood mononuclear cells (PBMCs). More particularly, the cells were incubated for 24 hours in the presence of the molecule tested, after activation with lipopolysaccharide (LPS) (1 μg/ml) according to the protocol described by Schindler, R., Mancilla, J., Endres, S., Ghorbani, R., Clark, S. C. and Dinarello, C. A. (Blood, 1990, 75, 40-47). After incubation, the TNFα concentrations were measured in the culture supernatants by the EIA method.

motoneurons = experiment: Motoneuron apoptosis induced by peroxynitrite; format: cell-based; conditions: concentration of 1 mM
Description: This test was carried out according to the protocol described by Cassina P. et al. (J. Neurosci. Res. 2002 67(1): 21-9). Briefly, the oxidative stress mediated by nitric oxide and its toxic metabolite, peroxynitrite, has been associated with motoneuron degeneration, in particular in amyotrophic lateral sclerosis. The astrocytes of the spinal cord respond to extracellular concentrations of peroxynitrite by adopting a phenotype which is cytotoxic for the motoneurons. In this model of apoptosis induced by peroxynitrite, the compound sodium 4-[[1-(oxo)-3-(4-oxopyrazolo[1,5-a]-1,3,5-triazin-8-yl)propyl]amino]benzoate (Ia5) protects more than 60% of the neurons at a concentration of 1 mM.

[2] = tested on: neurons cultured from fetal rat brain cortex; experiment: Neurite development in primary neuron cultures from fetal rat brain cortex; format: cell-based
Description: FIG. 1 represents the effect of the molecule Ia5 on neurons in culture. The neurons are cultured in Neurobasal medium from fetal rat brain cortex according to the procedure described in example 4 and are photographed without staining 17 days after being placed in culture. Culture A is a control culture without compound. The molecule Ia5 was added to culture B on the 8th day after the placing in culture, at a concentration of 50 μM.
Compounds according to the invention were evaluated for their neurotrophic properties. The idea is therefore to observe the behavior of a neuron cell culture in the absence and presence of such molecules. The molecule called Ia5 used during this example is a molecule having the general structure Ic1, where n=2 and m=0, in the form of a sodium salt.
The adult animals are mated and the female rats are separated the following day. After 16 days, the gestating rats undergo a cesarean and the fetuses are placed in a Petri dish 100 mm in diameter. They are transferred, under a laminar flow hood, into sterile medium. The fetuses are isolated by units and are dissected under a binocular magnifying lens in sterile medium. The cerebral cortex is isolated and placed in a tube containing Neurobasal medium without antibiotic. […] The cells are counted using a Mallassez hematometer in the presence of trypan blue in order to determine the cell viability. […]

[3] = tested on: rat embryonic motoneuron cells; experiment: Apoptosis induced by elimination of BDNF in primary motoneuron cultures; format: cell-based; conditions: BDNF deprivation; concentration of 1 mM
Description: This test was carried out according to the protocol described by Estevez A. G. et al. (J. Neurosci. 1998, 18(3), 923-931). Briefly, when primary cultures of rat embryonic motoneuron cells are deprived of brain-derived neurotrophic factor (BDNF), an induction of neuronal nitric oxide synthase (NOS) was observed, resulting in the gradual death of the neurons by apoptosis: between 18 and 24 hours after having realized the biological preparation, more than 60% of the neurons die. In this model of induced apoptosis, the compound sodium 4-[[1-(oxo)-3-(4-oxopyrazolo[1,5-a]-1,3,5-triazin-8-yl)propyl]amino]benzoate (Ia5) protects more than 70% of the neurons at a concentration of 1 mM.

PDE6 (bovine) = target: T2, PDE6 (bovine) (Bos taurus, UniProt P11541+P23439); experiment: PDE6 inhibition (selectivity); format: biochemical; conditions: substrate [3H]cGMP+cGMP 2 μM
T2 sequence (P11541 2-856): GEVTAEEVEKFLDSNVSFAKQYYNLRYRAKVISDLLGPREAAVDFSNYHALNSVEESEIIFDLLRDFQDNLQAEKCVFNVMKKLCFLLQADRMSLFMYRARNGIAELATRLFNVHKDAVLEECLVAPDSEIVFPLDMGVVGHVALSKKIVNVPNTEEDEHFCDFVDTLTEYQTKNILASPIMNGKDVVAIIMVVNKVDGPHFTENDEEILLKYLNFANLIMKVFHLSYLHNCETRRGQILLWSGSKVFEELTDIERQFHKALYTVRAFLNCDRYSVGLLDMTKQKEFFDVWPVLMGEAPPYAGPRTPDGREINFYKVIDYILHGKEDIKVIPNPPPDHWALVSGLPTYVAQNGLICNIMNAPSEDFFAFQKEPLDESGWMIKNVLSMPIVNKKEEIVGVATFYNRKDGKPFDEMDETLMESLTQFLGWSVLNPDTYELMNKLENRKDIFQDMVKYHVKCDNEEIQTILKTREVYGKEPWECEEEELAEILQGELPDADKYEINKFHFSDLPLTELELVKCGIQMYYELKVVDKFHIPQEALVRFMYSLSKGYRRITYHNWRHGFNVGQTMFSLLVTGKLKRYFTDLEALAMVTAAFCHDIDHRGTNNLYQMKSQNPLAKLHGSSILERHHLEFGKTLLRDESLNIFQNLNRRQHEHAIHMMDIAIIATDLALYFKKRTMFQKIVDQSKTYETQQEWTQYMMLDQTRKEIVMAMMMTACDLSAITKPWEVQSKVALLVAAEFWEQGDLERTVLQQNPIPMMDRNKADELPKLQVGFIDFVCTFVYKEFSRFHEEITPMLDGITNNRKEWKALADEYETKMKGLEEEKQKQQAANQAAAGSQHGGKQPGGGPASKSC
T2 sequence (P23439 2-850): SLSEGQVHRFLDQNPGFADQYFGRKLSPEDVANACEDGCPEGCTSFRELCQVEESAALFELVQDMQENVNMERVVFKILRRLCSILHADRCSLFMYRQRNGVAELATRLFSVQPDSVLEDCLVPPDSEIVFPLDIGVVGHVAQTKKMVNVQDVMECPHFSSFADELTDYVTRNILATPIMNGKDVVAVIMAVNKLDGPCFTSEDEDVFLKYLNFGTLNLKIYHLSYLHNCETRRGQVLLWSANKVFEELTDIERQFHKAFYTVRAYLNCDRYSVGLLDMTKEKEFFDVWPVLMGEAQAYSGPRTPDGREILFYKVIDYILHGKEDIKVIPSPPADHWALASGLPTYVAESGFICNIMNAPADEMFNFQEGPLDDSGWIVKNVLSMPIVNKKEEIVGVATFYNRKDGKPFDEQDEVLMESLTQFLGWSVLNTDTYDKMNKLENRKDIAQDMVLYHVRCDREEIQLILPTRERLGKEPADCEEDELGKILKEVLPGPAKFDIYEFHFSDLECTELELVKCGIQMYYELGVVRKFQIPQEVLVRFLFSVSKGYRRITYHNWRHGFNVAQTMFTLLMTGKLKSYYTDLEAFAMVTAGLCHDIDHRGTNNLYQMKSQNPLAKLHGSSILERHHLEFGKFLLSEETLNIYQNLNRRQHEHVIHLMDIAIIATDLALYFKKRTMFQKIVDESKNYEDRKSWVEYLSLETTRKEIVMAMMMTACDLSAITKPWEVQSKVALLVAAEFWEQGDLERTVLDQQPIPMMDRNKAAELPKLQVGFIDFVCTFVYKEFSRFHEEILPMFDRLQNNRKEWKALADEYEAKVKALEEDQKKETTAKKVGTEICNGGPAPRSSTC
T2 sequence (P04972 1-87 partner): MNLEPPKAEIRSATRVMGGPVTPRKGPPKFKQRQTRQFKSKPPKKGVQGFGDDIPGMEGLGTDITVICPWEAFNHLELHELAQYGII
Text: (§1) cyclic nucleotide phosphodiesterases: PDE1 (bovine), PDE3 (human), PDE5 (human) and PDE6 (bovine), by following the methods described, respectively, by: (i, PDE1) Nicholson C. D., JACKMAN S. A. and WILKE R. (Brit. J. Pharmacol. 1989, 97, 889-897); (ii, PDE3 and PDE5) Weishaar, R. E., Burrows, S. D., Kobylarz, D. C., Quade, M. M. and Evans, D. B. (Biochem. Pharmacol., 1986, 35, 787-800); (iii PDE6) Ballard, A. S., Gingell, C. J., Tang, K., Turner, L. A., PRICE, M. E. (J. Urol, 1998, 159, 2164-2171). […] In the case of PDE5 and PDE 6, the substrate used is ([3H]cGMP+cGMP) at a concentration of 1 μM for PDE5 and 2 μM for PDE6. A quantitative measurement of the hydrolysis products [3H]-5′-AMP and [3H]-5′-GMP was determined by scintillation.

PDE1 (bovine) = experiment: PDE1 inhibition (selectivity); format: biochemical; conditions: substrate [3H]cAMP+cAMP 1 μM, 30 minutes at 30° C.
Text: as §1

T1 sequence (O00408 whole entry): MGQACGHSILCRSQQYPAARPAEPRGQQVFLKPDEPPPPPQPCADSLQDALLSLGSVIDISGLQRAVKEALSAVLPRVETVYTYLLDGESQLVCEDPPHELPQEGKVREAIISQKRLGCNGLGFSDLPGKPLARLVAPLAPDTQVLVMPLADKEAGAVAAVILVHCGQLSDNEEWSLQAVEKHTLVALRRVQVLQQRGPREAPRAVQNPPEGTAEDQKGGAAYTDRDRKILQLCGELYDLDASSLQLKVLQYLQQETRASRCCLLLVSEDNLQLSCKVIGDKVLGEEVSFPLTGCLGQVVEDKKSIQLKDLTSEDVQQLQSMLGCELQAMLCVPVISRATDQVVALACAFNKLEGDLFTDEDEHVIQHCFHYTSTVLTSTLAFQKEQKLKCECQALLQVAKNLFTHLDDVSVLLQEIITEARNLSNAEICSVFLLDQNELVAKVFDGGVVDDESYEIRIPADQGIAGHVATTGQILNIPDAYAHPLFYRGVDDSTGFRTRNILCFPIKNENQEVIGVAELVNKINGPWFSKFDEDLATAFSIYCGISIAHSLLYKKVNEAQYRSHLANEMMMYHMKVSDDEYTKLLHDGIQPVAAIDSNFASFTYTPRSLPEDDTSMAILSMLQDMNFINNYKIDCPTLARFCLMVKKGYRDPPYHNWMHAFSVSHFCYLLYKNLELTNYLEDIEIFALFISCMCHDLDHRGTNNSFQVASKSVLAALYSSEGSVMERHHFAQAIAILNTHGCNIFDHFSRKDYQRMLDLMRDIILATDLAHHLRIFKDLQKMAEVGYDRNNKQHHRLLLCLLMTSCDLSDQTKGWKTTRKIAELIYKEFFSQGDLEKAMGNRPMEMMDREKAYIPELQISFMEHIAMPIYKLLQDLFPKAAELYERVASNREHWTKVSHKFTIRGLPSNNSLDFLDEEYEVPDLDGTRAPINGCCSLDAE

melting point: 150 to 152 °C
Compound: CCCc1nc(N(C)c2ccccc2)n2ncc(C(O)c3cccs3)c2n1 (stereo not shown) [Ib18, 8-[(Hydroxy)(2-thienyl)methyl]-4-(N-methyl-N-phenylamino)-2-n-propylpyrazolo[1,5-a]-1,3,5-triazine]

melting point: 142 to 144 °C
Compound: CCCc1nc(N(C)c2ccccc2)n2ncc(C(O)c3ccoc3)c2n1 (stereo not shown) [Ib15, 8-[(3-Furyl)(hydroxy)methyl]-4-(N-methyl-N-phenylamino)-2-n-propylpyrazolo[1,5-a]-1,3,5-triazine]

IC50 [1]: 2100 nM
Compound: CCCCCC[C@@H]([C@@H](C)O)n1cnc2c(N)ncnc21 (racemic) [EHNA]

IC50 (TNFα): 4600 nM
Compound: C[C@@H]1C[C@H]2[C@@H]3CCC4=CC(=O)C=C[C@]4(C)[C@@]3(F)[C@@H](O)C[C@]2(C)[C@@]1(O)C(=O)CO [dexamethasone]

Compound: O=C(CCc1cnn2c(=O)[nH]cnc12)Nc1ccc(C(=O)[O-])cc1.[Na+] [Ia5, Sodium 4-[[1-(oxo)-3-(4-oxopyrazolo[1,5-a]-1,3,5-triazin-8-yl)propyl]amino]benzoate]
neurons protected (motoneurons): more than 60% | neurite morphology in culture B compared with control A (FIG. 1) ([2]; 50 μM added on the 8th day, photographed 17 days after being placed in culture): thickening and an elongation of the neurites | neurite development compared with control cells ([2]; primary fetal rat cortex neurons, test molecule at 0.1, 1 and 10 μmol/l): greater neurite development than in the cells acting as control | neurons protected [3]: more than 70%

Compound: CCCOc1ccccc1-c1nc2nn[nH]c2c(=O)[nH]1 [zaprinast]
IC50 (PDE6 (bovine)): 380 nM

IC50 (PDE1 (bovine)): 2900 nM
Compound: COCc1nc2c([nH]1)c(=O)n(C)c(=O)n2CC(C)C [8-methoxy-IBMX]
